pIC50: −log10 of the molar value. Active and inactive are the calls of the source. The rule behind the calls is not given here.
Each compound was assayed against methionyl-tRNA synthetase (Trypanosoma brucei brucei) (assay: inhibition of trypanosomal methionyl-tRNA synthetase – biochemical, luminescence, dose response, round 1, late-stage follow-up (AID 743153)). Conditions: recombinant T. brucei MetRS, luminescence (ATP depletion).

pIC50 | IC50 | Compound
6.72 |  | CNC(=S)N(CCc1ccccc1)C1CC(=O)N(c2ccc(Br)cc2)C1=O (stereo unspecified)
 | > 119 µM (inactive) | COc1ccc(CCN(C(=O)c2cccc(F)c2)C2CC(=O)N(c3ccc(Br)cc3)C2=O)cc1 (stereo unspecified)
6.04 |  | O=C(NCCc1nc2ccccc2[nH]1)c1ccc(Cl)cc1Cl
 | > 39.5 µM (inactive) | CC(=O)N(CCc1ccccc1)C1CC(=O)N(c2ccc(Br)cc2)C1=O (stereo unspecified)
5.17 |  | O=C(Cn1cc(C(=O)c2ccccc2)c2ccccc21)Nc1cccc(C(F)(F)F)c1
 | > 39.5 µM (inactive) | Cn1c(CCNC(=O)c2ccc(Cl)cc2)nc2ccccc21
6.49 |  | COc1ccc(CCN(C(=S)Nc2ccccc2)C2CC(=O)N(c3ccc(Cl)cc3)C2=O)cc1 (stereo unspecified)
 | inactive | O=C(Cn1cc(C(=O)C2CC2)c2ccccc21)Nc1cccc(C(F)(F)F)c1
 | > 119 µM (inactive) | O=C(Cn1cc(C(=O)C(=O)N2CCCC2)c2ccccc21)Nc1ccccc1
 | > 119 µM (inactive) | Cc1ccc2[nH]c3nc(SCC(=O)Nc4ccc(C(F)(F)F)cc4)nnc3c2c1
5.21 |  | CC(=O)c1cn(CC(=O)Nc2cccc(C(F)(F)F)c2)c2ccccc12
5.86 |  | O=C(Cn1cc(C(=O)c2ccco2)c2ccccc21)Nc1cccc(C(F)(F)F)c1
6.20 |  | O=C(CSc1nnc2c(n1)[nH]c1ccc(Br)cc12)NCc1ccccc1
5.31 |  | O=C(NCCc1nc2ccccc2[nH]1)c1ccc(Cl)cc1
 | inactive | O=C(CSC1CC(=O)N(c2cccc(Cl)c2)C1=O)Nc1ccc(Br)cc1 (stereo unspecified)
 | > 119 µM (inactive) | COc1ccc(NC(=O)C2CC(=O)n3c(nc4ccccc43)N2)cc1 (stereo unspecified)
 | > 39.5 µM (inactive) | Cc1cccc(NC(=O)C2CC(=O)n3c(nc4ccccc43)N2)c1 (stereo unspecified)
 | > 39.5 µM (inactive) | CCC(=O)c1cn(CC(=O)Nc2cccc(C(F)(F)F)c2)c2ccccc12
 | > 39.5 µM (inactive) | O=C(Cn1cc(C(=O)COc2ccccc2)c2ccccc21)Nc1cccc(C(F)(F)F)c1
 | > 119 µM (inactive) | O=C1CC(NCCc2ccccc2)C(=O)N1c1ccc(Br)cc1 (stereo unspecified)
5.73 |  | CCN(CC)C(=O)C(=O)c1cn(CC(=O)Nc2cccc(OC)c2)c2ccccc12
5.93 |  | O=C(Nc1ccc(F)c(Cl)c1)C1CC(=O)n2c(nc3ccccc32)N1 (stereo unspecified)
 | > 39.5 µM (inactive) | CC(=O)N(CCc1ccccc1)C1CC(=O)N(c2ccc(Cl)cc2)C1=O (stereo unspecified)
 | inactive | COc1cccc(NC(=O)C2CC(=O)n3c(nc4ccccc43)N2)c1 (stereo unspecified)
 | > 119 µM (inactive) | COc1ccc(NC(=O)CSc2nnc3c4cc(C)ccc4n(C)c3n2)cc1

The next lines start with the compound.

Compound | pIC50 | IC50
O=C(NCCc1nc2ccccc2[nH]1)c1ccc(Cl)c(Cl)c1 | 6.22 | 
O=C(NCCc1nc2ccccc2[nH]1)c1c(F)cccc1F |  | > 119 µM (inactive)
Cc1cccc(C(=O)NCCc2nc3ccccc3n2CCOc2ccccc2)c1 |  | > 39.5 µM (inactive)
Cc1ccc(C(=O)NCCc2nc3ccccc3[nH]2)cc1C |  | > 13.2 µM (inactive)
O=C(Cn1cc(C(=O)C(=O)N2CCOCC2)c2ccccc21)NCc1ccccc1 |  | > 119 µM (inactive)
Cc1ccc(C(=O)NCCc2nc3ccccc3[nH]2)cc1[N+](=O)[O-] | 5.62 | 
CCCCn1c(CCNC(=O)c2ccc(F)cc2)nc2ccccc21 |  | > 39.5 µM (inactive)
O=C(Cn1cc(C(=O)C(=O)N2CCOCC2)c2ccccc21)NCC1CCCO1 (stereo unspecified) |  | > 119 µM (inactive)
CCN(CC)C(=O)C(=O)c1cn(CC(=O)N(CC)c2ccccc2)c2ccccc12 |  | > 39.5 µM (inactive)
CCN(CC)C(=O)C(=O)c1cn(CC(=O)Nc2ccccc2OC)c2ccccc12 |  | > 119 µM (inactive)
Cc1cc2cc(C(=O)N3CCCC(c4nc5ccccc5[nH]4)C3)ccc2o1 (stereo unspecified) |  | > 39.5 µM (inactive)
COCCc1nc2ccc(C(=O)NCCc3nc4ccc(OC)cc4[nH]3)cc2o1 |  | > 39.5 µM (inactive)
COc1ccccc1NC(=O)CSc1nnc2c(n1)[nH]c1ccc(C)cc12 |  | inactive
CCN(C(=O)Cn1cc(C(=O)C(=O)N2CCOCC2)c2ccccc21)c1ccccc1 |  | > 119 µM (inactive)
Cc1cccc2[nH]c(CCN(C)C(=O)c3cccc(C4CCNC4)c3)nc12 (stereo unspecified) |  | > 119 µM (inactive)
COc1ccccc1NC(=O)Cn1cc(C(=O)C(=O)N2CCOCC2)c2ccccc21 |  | > 119 µM (inactive)
Cc1ccc(CNC(=O)CSc2nnc3c(n2)[nH]c2ccc(C)cc23)cc1 |  | inactive
CCN(CCc1nc2ccc(C)cc2[nH]1)C(=O)c1ccc2ncccc2c1 |  | > 119 µM (inactive)
CCc1ccc2[nH]c3nc(SCC(=O)NCc4cccc(OC)c4)nnc3c2c1 |  | > 39.5 µM (inactive)
CCN(CC)C(=O)C(=O)c1cn(CC(=O)N2CCCc3ccccc32)c2ccccc12 |  | > 119 µM (inactive)
O=C(C(=O)N1CCOCC1)c1cn(CC(=O)N2CCCc3ccccc32)c2ccccc12 |  | > 13.2 µM (inactive)
CC(C)c1nc2ccc(C(=O)N(C)CCc3nc4ccc(F)cc4[nH]3)cc2o1 |  | > 119 µM (inactive)
Cc1cccc2[nH]c(C3CCCN(C(=O)c4cccc5cccnc45)C3)nc12 (stereo unspecified) |  | > 39.5 µM (inactive)
CC1Cc2ccccc2N1C(=O)Cn1cc(C(=O)C(=O)N2CCOCC2)c2ccccc21 (stereo unspecified) |  | > 119 µM (inactive)
CCc1ccc2c(c1)c1nnc(SCC(=O)Nc3ccc4c(c3)OCO4)nc1n2C |  | > 119 µM (inactive)
CCN(CC)C(=O)C(=O)c1cn(CC(=O)Nc2cccc(C(F)(F)F)c2)c2ccccc12 | 6.96 | 
